Columns and labels:
Assay type in all cases: cell-based, human
SFRP1 = test: qRT-PCR of SFRP1 expression in RL95-2 cells; settings: RL95-2, normalized to 18S
Experimental: (§1) Using RL95-2 endometrial cancer cells, we overexpressed PME-1 (FIG. 21A) or depleted PME-1 with shRNA (FIG. 21B) and confirmed that PME-1 was appropriately expressed.
(§2) Total RNA was extracted with Qiagen RNAEasy kit from RL95-2 cells. cDNA was synthesized using 500 ng-1 μg of RNA and SuperScript VILO c-DNA mix (Life Technologies). Taqman probes and PCR-mix were purchased from Life Technologies. All samples were run in triplicates. Results are representative of three independent experiments in which genes of interest were normalized to the house-keeping gene, 18S or GAPDH, where fold-change was calculated using the ddCt method.

β-catenin = test: Western analysis of β-catenin in RL95-2 cells
Source text: We performed Western blot analysis in RL95-2 cells that were expressing empty vector (Control), over-expressing PME-1 (+PME-1) or expressing shRNA against PME-1 (−PME-1) to examine the protein stability of β-catenin (FIG. 19A). We observed a decrease in total β-catenin protein in cells that were over-expressing PME-1. This observation is correlated with the predicted ubiquitylation of β-catenin and its degradation. Conversely, a depletion of PME-1 led to stabilization of total β-catenin (FIG. 19A).
In another series of study, we performed a similar assay in which cells were treated with 10 μM MG-132 prior to protein extraction. MG-132 is a proteasome inhibitor and therefore allows for the accumulation of phosphorylated β-catenin, which is normally quickly degraded, to be detected by western analysis.
15 μg of protein was used for western analysis. PME-1 antibody (Santa Cruz) and COXIV (Cell Signaling Technologies) were used for detection of proteins and the blots were developed using chemiluminescence (Pierce ECL Western Blotting Substrate—Thermo Scientific) on the GE ImageQuant LAS 4000. For analysis of Akt, ERK, and β-catenin signaling in tissue culture, western analyses were completed as follows. RL95-2 cells stably infected with lentivirus expressing constructs were selected with puromycin (Invivogen). […]

WNT3 and WNT3A = test: qRT-PCR of WNT3 and WNT3A expression in RL95-2 cells; settings: RL95-2, normalized to 18S
Experimental: as §1, §2

In the case of “shPPME1 no. 2: shRNA targeting PPME1, SEQ ID NO: 2: GCAGCGATTATTAGTAGAGTT, bp 289-309; used for all subsequent experiments (guide GCAGCGATTATTAGTAGAGTT; listed as Homo sapiens)”, the SFRP1 expression (SFRP1) is reported as “significantly increased”, the SFRP1 expression (SFRP1; listed as shRNA (SEQ ID NO: 2)) is reported as “significant increase” and the “total β-catenin” value (β-catenin; absence of MG-132) is reported as “stabilization”. The “phosphorylated β-catenin” value (β-catenin; cells treated with 10 μM MG-132, compared to control cells) was “did not lead to an increase” and the “WNT3 and WNT3A expression” value (WNT3 and WNT3A) was “significantly decreased”.

Source: patent US20200190592A1, “PME-1 AS A BIOMARKER TO PREDICT AND DIAGNOSE AN INCREASED RISK OF ENDOMETRIAL CANCER AND GENE SILENCING OF PME-1 TO INHIBIT EPITHELIAL TO MESENCHYMAL TRANSITION” (Medical Diagnostic Laboratories, L.L.C., priority 2018, published 2020)
